# Assay results published in patent publication US20250345512A1, “COMBINATION SODIUM-GLUCOSE COTRANSPORTER INHIBITOR (SGLTI) INSULIN THERAPY FOR GLYCEMIC CONTROL IN TYPE 1 DIABETES” (University of Virginia Patent Foundation, priority 2022, published 2025).
# Tested on: participants with T1D
# Test: Randomized crossover clinical trial (NCT04201496): CGM glycemic outcomes with 5 mg daily empagliflozin adjunctive to AID (Control-IQ, CIQ) or PLGS (Basal-IQ, BIQ)
# Type: in vivo, human
# Settings: for % CGM time <50 mg/dL (<2.8 mmol/L) / % CGM time <60 mg/dL (<3.3 mmol/L) / % CGM time <70 mg/dL (<3.9 mmol/L) / % CGM time >180 mg/dL (>10.0 mmol/L) / % CGM time >250 mg/dL (>13.9 mmol/L) / % CGM time >300 mg/dL (>16.7 mmol/L) / CGM HBGI / CGM LBGI: median (IQR)
# Description: FIG. 2 presents a study analysis relative to baseline, control IQ (CIQ) (e.g., AID), and basal IQ (BIQ) (e.g., PLGS) implementation, according to investigation that is demonstrable of one or more embodiments herein. Therein, an experimental arm (G1, G2) providing an initial daily dose of 5 mg empagliflozin (EMPA) is depicted against a control arm (G3, G4) without such dosing (NOEMPA). Relative characteristics of the analysis are provided below.
# Study Design: A single-center, randomized, controlled, unblinded, crossover clinical trial (NCT04201496) compared four parallel groups, two groups in the experimental arm (EMPA) with 5 mg daily empagliflozin as adjunctive therapy to PLGS or AID, and two groups in the control arm (NOEMPA) with no drug and with a PLGS system (Basal-IQ, Tandem Diabetes Care) or AID system (Control-IQ, Tandem Diabetes Care). The groups within each arm differed from one another in the order of the randomly assigned crossover technological intervention, relative to PLGS being followed by AID or AID being followed by PLGS, respectively (FIG. 4). The study protocol was approved by the University of Virginia Institutional Review Board (IRB). An investigational device exemption (IDE), including an investigational new drug (IND) application for empagliflozin, was approved by the FDA. Safety aspects were overseen by an external data and safety monitoring board (DSMB). Participants: Major inclusion criteria were T1D treated with insulin for at least one year, use of continuous subcutaneous insulin infusion therapy for at least six months, age 18-65 yrs., no use of glucose lowering agents other than insulin, and Hb1Ac<9% (75 mmol/mol). Randomization: A (1:1:1:1) randomization assigned participants to either Group 1, AID-EMPA (4 weeks) followed by PLGS-EMPA (2 weeks), Group 2, PLGS-EMPA (2 weeks) followed by AID-EMPA (4 weeks), Group 3, AID-NOEMPA (4 weeks) followed by PLGS-NOEMPA (2 weeks), and Group 4, PLGS-NOEMPA (2 weeks) followed by AID-NOEMPA (4 weeks). Procedures: After confirmation of eligibility, participants underwent study equipment and medication training (experimental arm), or only study equipment training (control arm). Study equipment consisted of Dexcom G6® CGM (Dexcom Inc., San Diego, CA), Contour® Next blood glucose (Ascensia Diabetes Care, Basel, Switzerland) and Precision Xtra® blood ketone meters (Abbott, Alameda, CA) with their respective test strips; infusion sets, and the use of the t:slim X2™ insulin pump with Basal-IQ or Control-IQ technologies (Tandem Diabetes Care, San Diego, CA), according to randomization. […] Participants in the experimental arm were asked to record two days of baseline ketone values before initiating the use of the study drug. Thereafter, participants were directed to use the study CGM with EMPA for 1-2 weeks. A tolerance to the medication was assessed prior to the starting of the next study phase, including adherence to the protocol, ketone testing 2-4 times per day with monitored values not greater than 0.6 mmol/L on at least two successive occasions (the first testing upon waking in a fasted state), no adverse events relating to perineal infection or symptomatic postural hypotension, and no evidence of significant hypoglycemia <54 mg/dL, or any other listed adverse effects of the medication. Participants in the control arm were directed to use the study CGM for 1-2 weeks. Sample Size: The total sample size was projected to be 40 participants, assuming 1) 1:1:1:1 randomization; 2) 90% power and type 1 error a=0.01, further reinforcing the feasibility of hierarchical analyses. The projected recruitment sample was n=50, to accommodate up to 20% attrition rate without sacrificing statistical power. Analytical methods: For the primary analysis, TIR during the day in the 4-week AID period was compared between the two EMPA groups versus the two NOEMPA groups using a linear mixed-effects regression model while adjusting for pre-randomization HbAlc and age. […]
# [1] = overall, CIQ-EMPA vs. BIQ-NOEMPA, BIQ-EMPA vs. CIQ-NOEMPA
# [2] = overall, CIQ-EMPA vs. CIQ-NOEMPA, BIQ-EMPA vs. BIQ-NOEMPA
# [3] = overall, CIQ-EMPA vs. CIQ-NOEMPA, BIQ-EMPA vs. BIQ-NOEMPA, listed as AID-EMPA
# [4] = overnight, CIQ-EMPA vs. BIQ-EMPA
# [5] = overnight, CIQ-EMPA vs. BIQ-EMPA, listed as AID-EMPA
# [6] = overnight, CIQ-EMPA vs. BIQ-NOEMPA, BIQ-EMPA vs. CIQ-NOEMPA
# [7] = overnight, CIQ-EMPA vs. CIQ-NOEMPA, BIQ-EMPA vs. BIQ-NOEMPA
smiles,measurement,setting,value
"OC[C@H]1O[C@@H](c2ccc(Cl)c(Cc3ccc(O[C@H]4CCOC4)cc3)c2)[C@H](O)[C@@H](O)[C@@H]1O [CIQ-EMPA, empagliflozin]",Difference: CGM HBGI,[1],−5.4
same,Difference: CGM LBGI,[1],−0.1
same,Difference: % CGM time >180 mg/dL (>10.0 mmol/L),[2],−22.3 percentage points
same,Difference: CGM HBGI,[2],−2.7
same,Difference: CGM LBGI,[2],0
same,Difference: CGM SD,[2],-12.3 mg/dL
same,Difference: % CGM time 70-180 mg/dL (<3.9-10.0 mmol/L),[3],+14.7 percentage points
same,Difference: % CGM time >180 mg/dL (>10.0 mmol/L),[3],−12.3 percentage points
same,Difference: % CGM time >250 mg/dL (>13.9 mmol/L),[3],−4.9 percentage points
same,% CGM time <70-140 mg/dL (<3.9-7.8 mmol/L),"overall, n = 16, mean ± SD",59.6 ± 13.7%
same,% CGM time <70-180 mg/dL (<3.9-10.0 mmol/L),"overall, n = 16, mean ± SD",83 ± 10.6%
same,CGM CV (%),"overall, n = 16, mean ± SD",29.4 ± 3.6%
same,CGM SD,"overall, n = 16, mean ± SD",40.5 ± 9.4 mg/dL
same,Mean CGM glucose,"overall, n = 16, mean ± SD",137 ± 18.6 mg/dL
same,% CGM time <50 mg/dL (<2.8 mmol/L),"overall, n = 16",0(0-0.2) %
same,% CGM time <60 mg/dL (<3.3 mmol/L),"overall, n = 16",0.3(0.1-0.5) %
same,% CGM time <70 mg/dL (<3.9 mmol/L),"overall, n = 16",1.1(0.5-1.5) %
same,% CGM time >180 mg/dL (>10.0 mmol/L),"overall, n = 16",11.5(7-19) %
same,% CGM time >250 mg/dL (>13.9 mmol/L),"overall, n = 16",1.1(0.2-2.9) %
same,% CGM time >300 mg/dL (>16.7 mmol/L),"overall, n = 16",0(0-0.5) %
same,CGM HBGI,"overall, n = 16",2.7(2-4.4)
same,CGM LBGI,"overall, n = 16",0.5(0.4-0.6)
same,Difference (95% CI): % CGM time 70 mg/dL (<3.9 mmol/L),[4],−1.5 percentage points
same,Difference (95% CI): % CGM time <50 mg/dL (<2.8 mmol/L),[4],0.2 percentage points
same,Difference (95% CI): % CGM time <60 mg/dL (<3.3 mmol/L),[4],−0.4 percentage points
same,Difference (95% CI): % CGM time >250 mg/dL (>13.9 mmol/L),[4],−2.5 percentage points
same,Difference (95% CI): % CGM time >300 mg/dL (>16.7 mmol/L),[4],−2.5 percentage points
same,Difference (95% CI): CGM CV (%),[4],−5.1%
same,Difference (95% CI): CGM HBGI,[4],−2.1
same,Difference (95% CI): CGM LBGI,[4],−0.5
same,Difference (95% CI): CGM SD,[4],-10.2 mg/dL
same,Difference (95% CI): Mean CGM glucose,[4],-11.7 mg/dL
same,Difference (95% CI): % CGM time 70-180 mg/dL (3.9-10.0 mmol/L),[5],+10.2 percentage points
same,Difference (95% CI): % CGM time >180 mg/dL (>10.0 mmol/L),[5],−9.5 percentage points
same,Difference (95% CI): % CGM time <60 mg/dL (<3.3 mmol/L),[6],−0.3 percentage points
same,Difference (95% CI): % CGM time >180 mg/dL (>10.0 mmol/L),[6],−27.3 percentage points
same,Difference (95% CI): % CGM time >250 mg/dL (>13.9 mmol/L),[6],−16.4 percentage points
same,Difference (95% CI): % CGM time >300 mg/dL (>16.7 mmol/L),[6],−7.6 percentage points
same,Difference (95% CI): CGM CV (%),[6],−11.1%
same,Difference (95% CI): CGM HBGI,[6],−7.3
same,Difference (95% CI): CGM LBGI,[6],−0.3
same,Difference (95% CI): CGM SD,[6],-27.1 mg/dL
same,Difference (95% CI): Mean CGM glucose,[6],-36.2 mg/dL
same,Difference (95% CI): % CGM time 70 mg/dL (<3.9 mmol/L),[7],−1.1 percentage points
same,Difference (95% CI): % CGM time <50 mg/dL (<2.8 mmol/L),[7],−0.1 percentage points
same,Difference (95% CI): % CGM time <60 mg/dL (<3.3 mmol/L),[7],−0.6 percentage points
same,Difference (95% CI): % CGM time >180 mg/dL (>10.0 mmol/L),[7],−14.6 percentage points
same,Difference (95% CI): % CGM time >250 mg/dL (>13.9 mmol/L),[7],−5.5 percentage points
same,Difference (95% CI): CGM HBGI,[7],−3.2
same,Difference (95% CI): CGM LBGI,[7],0.2
same,Difference (95% CI): CGM SD,[7],-18.3 mg/dL
same,Difference (95% CI): Mean CGM glucose,[7],-21.5 mg/dL
same,% CGM time 70-140 mg/dL (3.9-7.8 mmol/L),"overnight, n = 16, mean ± SD",64 ± 18%
same,% CGM time 70-180 mg/dL (3.9-10.0 mmol/L),"overnight, n = 16, mean ± SD",87 ± 13%
same,CGM CV (%),"overnight, n = 16, mean ± SD",25.4 ± 5.4%
same,CGM SD,"overnight, n = 16, mean ± SD",34.2 ± 10.7 mg/dL
same,Mean CGM glucose,"overnight, n = 16, mean ± SD",133 ± 20 mg/dL
same,% CGM time <50 mg/dL (<2.8 mmol/L),"overnight, n = 16",0(0-0.3) %
same,% CGM time <60 mg/dL (<3.3 mmol/L),"overnight, n = 16",0.3(0-0.5) %
same,% CGM time <70 mg/dL (<3.9 mmol/L),"overnight, n = 16",0.7(0-1.3) %
same,% CGM time >180 mg/dL (>10.0 mmol/L),"overnight, n = 16",6.3(3.3-11.1) %
same,% CGM time >250 mg/dL (>13.9 mmol/L),"overnight, n = 16",0(0-2) %
same,% CGM time >300 mg/dL (>16.7 mmol/L),"overnight, n = 16",0(0-0.4) %
same,CGM HBGI,"overnight, n = 16",2.1(1.3-2.7)
same,CGM LBGI,"overnight, n = 16",0.4(0.2-0.5)
same,"night-time in range, h out of 8 h","overnight, out of 8 h of the night-time, listed as AID-EMPA",7 h
